Measurements taken from the supplement of paper PMC10307832.

Experiments:
Assay in all cases: relative viability (nuclei count vs DMSO), 5 days (fraction); higher = more cells survive
R406 + Linsitinib = compound: COc1cc(Nc2ncc(F)c(Nc3ccc4c(n3)NC(=O)C(C)(C)O4)n2)cc(OC)c1OC [R406] + C[C@]1(O)C[C@@H](c2nc(-c3ccc4ccc(-c5ccccc5)nc4c3)c3c(N)nccn32)C1 [Linsitinib] (partner 1 µM)
Procedure, shortened: (§1)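 Dosing by pin tool came one day after lung cancer cell lines were seeded in 1536-well plates, using either one drug or a fixed anchor-drug dose plus five library-drug doses (not always all listed) in √10 steps. After 5 days, nuclei were counted on 4× images. Relative viability is treated-well nuclei count divided by vehicle-well nuclei count, and values are medians of duplicate plates.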

R406 + Dasatinib = compound: COc1cc(Nc2ncc(F)c(Nc3ccc4c(n3)NC(=O)C(C)(C)O4)n2)cc(OC)c1OC [R406] + Cc1nc(Nc2ncc(C(=O)Nc3c(C)cccc3Cl)s2)cc(N2CCN(CCO)CC2)n1 [Dasatinib] (partner 0.075 µM)
Procedure, shortened: as §1

R406 + Pemetrexed = compound: COc1cc(Nc2ncc(F)c(Nc3ccc4c(n3)NC(=O)C(C)(C)O4)n2)cc(OC)c1OC [R406] + Nc1nc2[nH]cc(CCc3ccc(C(=O)N[C@@H](CCC(=O)O)C(=O)O)cc3)c2c(=O)[nH]1 [Pemetrexed] (partner 0.2 µM)
Procedure, shortened: as §1

Daporinad + Lapatinib = compound: O=C(/C=C/c1cccnc1)NCCCCC1CCN(C(=O)c2ccccc2)CC1 [Daporinad] + CS(=O)(=O)CCNCc1ccc(-c2ccc3ncnc(Nc4ccc(OCc5cccc(F)c5)c(Cl)c4)c3c2)o1 [Lapatinib] (partner 2 µM)
Procedure, shortened: as §1

Row | Cell Line | relative viability (R406 + Linsitinib; first compound 0.08 µM) | relative viability (R406 + Linsitinib; first compound 0.253 µM) | relative viability (R406 + Linsitinib; first compound 0.8 µM) | relative viability (R406 + Linsitinib; first compound 2.53 µM) | relative viability (R406 + Linsitinib; first compound 8 µM) | relative viability (R406 + Dasatinib; first compound 0.08 µM) | relative viability (R406 + Dasatinib; first compound 0.253 µM) | relative viability (R406 + Dasatinib; first compound 0.8 µM) | relative viability (R406 + Dasatinib; first compound 2.53 µM) | relative viability (R406 + Dasatinib; first compound 8 µM) | relative viability (R406 + Pemetrexed; first compound 0.08 µM) | relative viability (R406 + Pemetrexed; first compound 0.253 µM) | relative viability (R406 + Pemetrexed; first compound 0.8 µM) | relative viability (R406 + Pemetrexed; first compound 2.53 µM) | relative viability (R406 + Pemetrexed; first compound 8 µM) | relative viability (Daporinad + Lapatinib; first compound 0.0005 µM) | relative viability (Daporinad + Lapatinib; first compound 0.001581 µM) | relative viability (Daporinad + Lapatinib; first compound 0.005 µM) | relative viability (Daporinad + Lapatinib; first compound 0.01581 µM)
1 | LK-2 | 0.513 | 0.573 | 0.641 | 0.379 | 0.11 | 0.26 | 0.303 | 0.285 | 0.346 | 0.201 | 0.192 | 0.326 | 0.38 | 0.191 | 0.126 | 0.877 | 0.967 | 0.546 | 0.324
2 | LOU-NH91 | 0.992 | 0.882 | 0.982 | 0.602 | 0.521 | 0.593 | 0.617 | 0.545 | 0.354 | 0.334 | 0.362 | 0.399 | 0.37 | 0.455 | 0.38 | 0.767 | 0.788 | 0.932 | 0.952
3 | LU99A | 0.518 | 0.499 | 0.572 | – | 0.197 | 0.553 | 0.607 | 0.548 | 0.377 | 0.271 | 0.188 | 0.183 | 0.224 | 0.187 | 0.172 | 0.839 | 1.14 | 0.98 | 1.17
4 | LXF-289 | 0.922 | 0.967 | 0.994 | 0.989 | 0.295 | 0.229 | 0.241 | 0.234 | 0.135 | 0.0357 | 0.874 | 0.912 | 0.908 | 0.887 | 0.725 | 0.847 | 0.989 | 0.91 | 0.95
5 | NCI-H23 | 0.494 | 0.7 | 0.7 | 0.56 | 0.459 | 0.7 | 0.878 | 0.902 | – | 0.748 | 0.565 | 0.806 | 0.782 | 0.17 | 0.248 | 1.17 | 0.987 | 0.94 | 0.41
6 | NCI-H322M | 0.879 | 0.814 | 0.983 | 0.523 | 0.472 | 0.237 | 0.245 | 0.26 | 0.24 | 0.208 | 0.532 | 0.596 | 0.63 | 0.466 | 0.396 | 0.648 | 0.671 | 0.584 | 0.597
7 | NCI-H358 | 0.889 | 0.752 | 0.723 | 0.418 | 0.336 | 0.165 | 0.171 | 0.113 | 0.143 | 0.132 | 0.167 | 0.17 | 0.168 | 0.146 | 0.145 | 0.359 | 0.634 | 0.533 | 0.451
8 | NCI-H460 | 0.824 | 0.8 | 1.17 | – | 0.0646 | 0.477 | 0.584 | 0.586 | 0.323 | 0.257 | 0.064 | 0.0593 | 0.0591 | 0.0591 | 0.0556 | 0.797 | 1.15 | 1.08 | 1.04
9 | NCI-H520 | 0.897 | 1.09 | 1.07 | 0.486 | 0.295 | 0.209 | 0.235 | 0.223 | 0.198 | 0.189 | 0.698 | 0.724 | 0.675 | 0.285 | 0.153 | 0.976 | 0.54 | 0.224 | 0.149
10 | NCI-H596 | 1.09 | 1.2 | 1.2 | 0.878 | 0.232 | 0.619 | 0.61 | 0.686 | 0.505 | 0.173 | 0.527 | 0.554 | 0.428 | 0.392 | 0.324 | 0.941 | 1.22 | 1.08 | 0.544
11 | NCI-H647 | 0.813 | 1.21 | 1.15 | 0.763 | 0.159 | 0.168 | 0.161 | 0.251 | 0.108 | 0.0646 | 0.172 | 0.178 | 0.17 | 0.0932 | 0.0585 | 1.13 | 1.34 | 1.19 | 1.01
12 | NCI-H650 | 0.909 | 0.876 | 1.15 | 0.473 | 0.528 | 0.463 | 0.513 | 0.483 | 0.426 | 0.425 | 0.912 | 1.13 | 0.953 | 0.779 | 0.591 | 0.889 | 1.25 | 1.19 | 1.31
13 | NCI-H661 | 0.436 | 0.72 | 0.515 | 0.39 | 0.335 | 0.847 | 0.824 | 1.1 | 0.684 | 0.402 | 0.943 | 0.92 | 0.86 | 0.767 | 0.685 | 0.374 | 0.443 | 0.403 | 0.402
14 | NCI-H838 | 1.03 | 1.15 | 1.12 | 0.645 | 0.522 | 0.25 | 0.287 | 0.52 | 0.204 | 0.219 | 0.257 | 0.268 | 0.244 | 0.226 | 0.136 | 0.998 | 1.31 | 0.966 | 0.5
15 | NCI-H1355 | 0.83 | 0.83 | 0.94 | 0.588 | 0.596 | 0.754 | 0.79 | 0.777 | 0.491 | 0.32 | 1.09 | 1.09 | 1.09 | 0.982 | 0.911 | 0.956 | 1.09 | 0.995 | 0.873
